Test results taken from patent US20060167057A1, “Compounds for the treatment of CNS and amyloid associated diseases” (priority 2004, published 2006).
Blank lines part the entries; values can stand above or below the molecule they belong to.

Assays:
HUVEC = test: Cellular toxicity assay on HUVEC (WST-1 viability); type: cell-based, human; settings: 24 hours, <75% considered toxic
Method: Compound samples in PBS (without Ca^+2, Mg^+2)-glucose 3 mM-HEPES 10 mM—DMSO 1%, as prepared in Example 1, were thawed and left for at least 30 minutes at 20-23° C. before preparation of the following sub-dilutions for the compound toxicity assay: • 100 μL of stock compound solution were added to 900 μL PBSD-1 [diluted 1:10 for a final 1:10 dilution] • 100 μL (1/10 dilution above) were added to 900 μL PBSD-1 [diluted 1:10 for a final 1:100 dilution] Culture of HUVEC
Endothelial cells from human umbilical cord (HUV-EC-C or HUVEC) were purchased form American Type Culture Collection (ATCC, CRL-1730) and cultured according to the manufacturer's protocol. A 1-mL frozen aliquot of sub-cultured cells was thawed in a 37° C. water bath and centrifuged following addition of 5 mL of medium. After re-suspension in 5 mL medium, cells were seeded in a TC80 cm^2 flask pre-coated with 0.1% gelatin. Culture medium was replaced every 3-4 days and cells monitored until confluency was reached.
A sterile stock solution of 0.5 mM of camptothecin (Sigma) was prepared by dissolving a weighed amount of 0.0085 g in 50 mL of double distilled water at 37° C. in a water bath. The solution was vortexed, then filtered through a 0.22-μm filter unit and kept at 4° C. for the duration of the toxicity assays.
From the stock solution, concentrations of 60, 75, 80, 100, 150, 200 and 250 nM of camptothecin were prepared in culture diluent containing 1% DMSO.
HUVEC were cultured for 4 days in gelatin-coated 96-well plates, following seeding with 40 μL/well of a cellular suspension of 1×10^5 cells/mL. Culture media was replaced every 3-4 days of culture until confluency was reached.
On the day of the toxicity assay, the conditioned culture media was removed from the wells and 90 μL of culture medium containing 1% DMSO was distributed in the plate. A volume of 10 μL of the stock solution, 1:10 and 1:100 dilutions of the compounds in PBS-glucose-HEPES-DMSO 1% were added to the appropriate wells (100-μL total volume/well). A volume of 100 μL of camptothecin dilutions and culture medium containing 1% DMSO was also distributed into the plate. Cells were incubated at 37° C. of 24 hours and then 10 μL of the tetrazolium salt WST-1 solution were added to cells and incubated for an extra 90 minutes at 37° C. The absorbance that was associated to the cellular viability was measured at 450nm on the SpectraFluor Tecan reader, and the raw data processed.
The intrinsic cellular toxicity of the compounds was determined for each concentration of every compound on HUVEC. The viability percentage was assessed (OD sample/OD control) ×100% and any value <75% viability was considered toxic. The following table, Table 5, lists the few compounds that presented at least one toxic concentration.

[1] = target: T1, L1 transport system (large neutral amino acid carrier, L1-system carrier) (Rattus norvegicus, UniProt Q63016); test: Competitive binding assay to the brain L1 transport system (L-[U-14C]phenylalanine on rat primary cerebrovascular endothelial cells)
T1 construct: functionality of their endogenous transporters such as the L1-system carrier; endogenous in cells; host or cells: rat primary cerebrovascular (brain microcapillary) endothelial cells, RBEC
In short: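 Cells were primary cerebral microvascular endothelial cells from cortices of 24-day-old rats, isolated by collagenase/DNAse digestion, dextran separation and mesh filtration.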

[2] = system: Apolipoprotein E-Aβ interaction; test: Apolipoprotein E-Aβ interaction assay; type: binding; settings: 200 μM test compound, ApoE/Aβ alone = 100%
Method: The level of interaction between Apolipoprotein E and Aβ was measured for five inventive compounds to determine whether, under the specific conditions of the present example, the compounds would inhibit the interaction. Nunc-Immuno Maxisorp 96-well microtiter plates were coated with 1 μM HFIP-disaggregated Aβ in 0.1 M NaHCO3 pH 9.6 for 2 hours and 15 minutes at 37°, washed two times in TBS (100 mM Tris-HCl, pH 7.5, 150 mM NaCl), and wells were blocked with 1% fatty-acid free BSA in TBS overnight at 4°.
Test compounds were prepared in either TBS or DMSO at a final concentration of either 2 mM or 10 mM respectively. Recombinant ApoE (Fitzgerald Industries Int.) was prepared in 700 mM NH4HCO3 at a final concentration of 0.44 mg/mL to prevent monomer assembly and stored as aliquots at −20°. 3.41 μg/mL of purified ApoE was pre-incubated in the presence of 200 μM test compounds, all in triplicate, in 1% BSA/TBS in a 96-well transfer plate for one hour and then added to the Aβ-coated wells for an additional two hours with gentle shaking at 37° to allow ApoE/Aβ association. Plates were washed three times in TBS to remove excess ApoE and incubated first with 0.125 μg/mL mouse monoclonal anti-ApoE antibody (BD Bioscience) for 1 hour, washed and then incubated with 0.26 μg/mL horse-radish peroxidase conjugated goat anti-IgG antibody (Pierce) for 1 hour in 1% BSA/TBS-T (0.05% Tween-20). After washing, wells were incubated with Sure Blue™ TMB-1 peroxidase substrate (KPL) for 30 minutes. The reaction was stopped using 1N HCl. Absorbance values at 450 nm were measured using TECAN plate reader and reflect the amount of ApoE bound to Aβ in the wells. Data were expressed as a percentage of ApoE/Aβ complexes by arbitrarily setting ApoE/Aβ alone at 100%. All compounds were tested at least twice.

Aβ40 = Aβ40 (Homo sapiens, UniProt P05067); test: Electrospray MS assay for binding to Aβ40; set-up: key: +++ = Strong (70 and higher % of free peptide); ++ = Moderate (50-70% of free peptide); + = Weak (25-50% of free peptide); 0 = None; settings: 100 μM compound, 20 μM Aβ40, pH 7.4
Description: The ability of a therapeutic compound of the invention to inhibit an interaction between an amyloidogenic protein and a glycoprotein or proteoglycan constituent of a basement membrane can be assessed by an in vitro binding assay, such as that described in U.S. Pat. No. 5,164,295, the contents of which are hereby incorporated by reference. Alternatively, the ability of a compound to bind to an amyloidogenic protein or to inhibit the binding of a basement membrane constituent (e.g. HSPG) to an amyloidogenic protein (e.g. Aβ) can be measured using a mass spectrometry assay where soluble protein, e.g Aβ, IAPP, β2M is incubated with the compound. A compound which binds to, e.g Aβ, will induce a change in the mass spectrum of the protein. Exemplary protocols for a mass spectrometry assay employing Aβ and IAPP can be found in the Examples, the results of which are provided in Table 5. The protocol can readily be modified to adjust the sensitivity of the data, e.g., by adjusting the amount of protein and/or compound employed. Thus, e.g., binding might be detected for test compounds noted as not having detectable binding employing less sensitive test protocols.
The binding ability between the compounds synthesized in Example 4 and Aβ40 in an aqueous solution is tested. The binding ability is attributed semi-quantitatively from the intensities of peptide-compound complex peaks observed in the Electrospray Mass Spectrum.
In the MS assay for Aβ40, samples are prepared as aqueous solutions adding 20% ethanol if necessary to solubilize in water. The stock solution of the peptide contains 50 μm Aβ40. In a typical experiment, 100 μM of an exemplary compound as prepared in Example 4 and 20 μM of solubilized Aβ40 are used. The ratio of the compound: peptide is 5:1. The pH value of each sample is adjusted to 7.4 (±0.2) by addition of 0.1% aqueous sodium hydroxide. The solutions are then analyzed by electrospray ionization mass spectrometry using a Waters ZQ 4000 mass spectrometer. Samples are introduced by direct infusion at a flow-rate of 25 μL/min within 2 hr. after sample preparation. The source temperature is kept at 70° C. and the cone voltage is 20 V for all the analysis. Data are processed using Masslynx 3.5 software. Aβ 1-40 (M.W.=4329) alone at 20 μM is analyzed at pH 7.32 as a control. Sodium clusters, which are typical of this system at +3 and +4 at m/z […] regions, may be observed. The MS assay gives data on the ability of compounds to bind to soluble Aβ, whereas the ThT, EM and CD assays give data on inhibition of fibrillogenesis.
In Table 7, a blank box means that a value was not determined for that compound in that assay.

Aβ40, sequence (P05067 672-711 limits assumed): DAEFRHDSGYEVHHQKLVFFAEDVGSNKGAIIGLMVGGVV
T1 sequence (Q63016 whole entry): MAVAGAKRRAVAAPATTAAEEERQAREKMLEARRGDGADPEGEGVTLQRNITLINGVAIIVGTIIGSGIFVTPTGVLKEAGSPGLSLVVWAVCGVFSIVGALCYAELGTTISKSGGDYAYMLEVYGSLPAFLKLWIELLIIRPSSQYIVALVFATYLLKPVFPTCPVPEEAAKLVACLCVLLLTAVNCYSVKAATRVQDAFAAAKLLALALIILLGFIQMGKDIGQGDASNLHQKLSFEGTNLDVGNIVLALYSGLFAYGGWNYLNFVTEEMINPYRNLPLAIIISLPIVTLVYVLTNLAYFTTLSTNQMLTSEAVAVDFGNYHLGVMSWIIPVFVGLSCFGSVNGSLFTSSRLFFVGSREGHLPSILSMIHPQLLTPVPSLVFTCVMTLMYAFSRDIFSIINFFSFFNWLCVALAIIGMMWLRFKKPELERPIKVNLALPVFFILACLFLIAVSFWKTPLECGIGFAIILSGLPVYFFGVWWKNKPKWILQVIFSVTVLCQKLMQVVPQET
T1 sequence (Q794F9 whole entry partner): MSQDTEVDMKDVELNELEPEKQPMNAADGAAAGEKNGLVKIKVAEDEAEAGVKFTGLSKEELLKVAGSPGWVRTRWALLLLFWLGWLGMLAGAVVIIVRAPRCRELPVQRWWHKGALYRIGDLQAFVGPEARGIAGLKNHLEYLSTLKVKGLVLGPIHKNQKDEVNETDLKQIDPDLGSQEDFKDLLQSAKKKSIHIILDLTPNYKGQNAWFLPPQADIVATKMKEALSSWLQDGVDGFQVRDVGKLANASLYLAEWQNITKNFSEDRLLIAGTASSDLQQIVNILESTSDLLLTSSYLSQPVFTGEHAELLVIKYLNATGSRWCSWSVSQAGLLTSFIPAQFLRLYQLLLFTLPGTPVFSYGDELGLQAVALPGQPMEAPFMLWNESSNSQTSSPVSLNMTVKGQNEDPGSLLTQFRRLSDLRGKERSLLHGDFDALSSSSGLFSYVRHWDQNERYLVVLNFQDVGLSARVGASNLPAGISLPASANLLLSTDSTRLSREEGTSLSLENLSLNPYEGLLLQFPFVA

- Comparison with the Binding of Phenylalanine ([1]; 10^−4 M): 2 (10 < X < 20 Rank 2)
- Comparison with the Binding of Phenylalanine ([1]; 10^−5 M): 3 (X > 20 Rank 3)
- Comparison with the Binding of Phenylalanine ([1]; 10^−6 M): 0 (X < 0 Rank 0)
Structure (SMILES): O=C(O)C(Cc1cccc(CSc2nnc[nH]2)n1)NS(=O)(=O)c1ccc(F)cc1 (stereo not drawn) [Compound 66]
- Viability (%) (HUVEC; 10^−4 M): 117%
- Viability (%) (HUVEC; 10^−5 M): 114%
- Viability (%) (HUVEC; 10^−6 M): 67%

Structure (SMILES): NC(Cc1cccc(CSc2nnnn2-c2ccccc2)c1)C(=O)O (stereo not drawn) [drawing 530]
- Aβ-ApoE % Complex ([2]; first value of the cell): 107%
- Aβ-ApoE % Complex ([2]; second value of the cell): 97%

Structure (SMILES): NC(Cc1cccc(CSc2nc3ccccc3o2)n1)C(=O)O (stereo not drawn) [Compound 30]
- Viability (%) (HUVEC; 10^−4 M): 110%
- Viability (%) (HUVEC; 10^−5 M): 112%
- Viability (%) (HUVEC; 10^−6 M): 8%
- Comparison with the Binding of Phenylalanine ([1]; 10^−4 M): 1 (0 < X < 10 Rank 1)
- Comparison with the Binding of Phenylalanine ([1]; 10^−5 M): 2 (10 < X < 20 Rank 2)
- Comparison with the Binding of Phenylalanine ([1]; 10^−6 M): 3 (X > 20 Rank 3)

Structure (SMILES): N[C@@H](Cc1cccc(CSc2nnc(-c3ccncc3)o2)c1)C(=O)O [drawing 533]
- Aβ-ApoE % Complex ([2]; first value of the cell): 101%
- Aβ-ApoE % Complex ([2]; second value of the cell): 94%

- MS Results (Aβ 1-40 binding) (Aβ40): + (+ = Weak (25-50% of free peptide))
Structure (SMILES): N[C@@H](Cc1cccc(CS(=O)(=O)c2ncc[nH]2)c1)C(=O)O [drawing 505]

Structure (SMILES): O=C(NC(Cc1cccc(CSc2ncnc3[nH]ncc23)n1)C(=O)O)NC(c1ccccc1)c1ccccc1 (stereo not drawn) [Compound 65]
- Viability (%) (HUVEC; 10^−4 M): 107%
- Viability (%) (HUVEC; 10^−5 M): 68%
- Viability (%) (HUVEC; 10^−6 M): 109%

Structure (SMILES): N[C@@H](Cc1cccc(CSc2nc3ccccc3[nH]2)n1)C(=O)O [drawing 532]
- Aβ-ApoE % Complex ([2]; first value of the cell): 94%
- Aβ-ApoE % Complex ([2]; second value of the cell): 112%

- MS Results (Aβ 1-40 binding) (Aβ40): 0
Structure (SMILES): N[C@@H](Cc1cccc(C[S+]([O-])c2nnc(-c3ccccc3)[nH]2)c1)C(=O)O (stereo partly drawn) [drawing 504]

- MS Results (Aβ 1-40 binding) (Aβ40): + (+ = Weak (25-50% of free peptide))
Structure (SMILES): N[C@@H](Cc1cccc(CSc2nnc(-c3ccccc3)[nH]2)c1)C(=O)O [drawing 490]

- MS Results (Aβ 1-40 binding) (Aβ40): + (+ = Weak (25-50% of free peptide))
Structure (SMILES): N[C@@H](Cc1cccc(CS(=O)(=O)c2nc3ccccc3[nH]2)n1)C(=O)O [drawing 493]

Structure (SMILES): COc1ccc(-n2nnnc2SCc2cccc(C[C@H](N)C(=O)O)c2)cc1 [drawing 529]
- Aβ-ApoE % Complex ([2]; first value of the cell): 98%
- Aβ-ApoE % Complex ([2]; second value of the cell): 97%

- Comparison with the Binding of Phenylalanine ([1]; 10^−4 M): 2 (10 < X < 20 Rank 2)
- Comparison with the Binding of Phenylalanine ([1]; 10^−5 M): 3 (X > 20 Rank 3)
- Comparison with the Binding of Phenylalanine ([1]; 10^−6 M): 2 (10 < X < 20 Rank 2)
Structure (SMILES): O=C(NC(Cc1cccc(CSc2nnc[nH]2)n1)C(=O)O)NC(c1ccccc1)c1ccccc1 (stereo not drawn) [Compound 37]
- Viability (%) (HUVEC; 10^−4 M): 94%
- Viability (%) (HUVEC; 10^−5 M): 50%
- Viability (%) (HUVEC; 10^−6 M): 87%

- MS Results (Aβ 1-40 binding) (Aβ40): Compound insoluble
Structure (SMILES): N[C@@H](Cc1cccc(CSc2nccc(C(F)(F)F)n2)n1)C(=O)O [drawing 497]

- MS Results (Aβ 1-40 binding) (Aβ40): Compound Insoluble
Structure (SMILES): N[C@@H](Cc1cccc(CSc2nc3ccc(Cl)cc3s2)n1)C(=O)O [drawing 498]

Structure (SMILES): N[C@@H](Cc1cccc(CSc2nnc(-c3ccccc3)[nH]2)c1)C(=O)O [drawing 531]
- Aβ-ApoE % Complex ([2]; first value of the cell): 88%
- Aβ-ApoE % Complex ([2]; second value of the cell): 94%

- MS Results (Aβ 1-40 binding) (Aβ40): + (+ = Weak (25-50% of free peptide))
Structure (SMILES): N[C@@H](Cc1cccc(CSc2nnnn2-c2ccc(O)cc2)c1)C(=O)O [drawing 501]

- MS Results (Aβ 1-40 binding) (Aβ40): + (+ = Weak (25-50% of free peptide))
Structure (SMILES): N[C@@H](Cc1cccc(CSc2nc3ccccc3[nH]2)c1)C(=O)O [drawing 489]

- MS Results (Aβ 1-40 binding) (Aβ40): + (+ = Weak (25-50% of free peptide))
Structure (SMILES): COc1ccc(-n2nnnc2[S+]([O-])Cc2cccc(C[C@H](N)C(=O)O)c2)cc1 (stereo partly drawn) [drawing 503]

- MS Results (Aβ 1-40 binding) (Aβ40): + (+ = Weak (25-50% of free peptide))
Structure (SMILES): N[C@@H](Cc1cccc(CSc2nnnn2-c2ccccc2)c1)C(=O)O [drawing 488]

- MS Results (Aβ 1-40 binding) (Aβ40): 0
Structure (SMILES): COc1ccc(-n2nnnc2[S+]([O-])Cc2cccc(C[C@H](N)C(=O)O)c2)cc1 (stereo partly drawn) [drawing 494]
